Where two headings read alike, the source gives them in different places.
Columns and labels:
LO2 cells = test: Hepatocyte protection rate in APAP-induced LO2 cells (MTT); type: cell-based, human; settings: for liver protection rate: 16 mM APAP; for hepatocyte protection (therapeutic effect): 16 mM APAP, 200, 400 and 600 μM
Experimental: Assessment of hepatocyte-protective effects: Cells in the logarithmic growth phase were seeded onto a 96-well plate at a density of 4000 cells per well, followed by incubation at 37 °C in an atmosphere containing 5% CO2. After 24 h of incubation, cells were treated with 16 mM APAP, followed by the addition of MONO, DIAM, and MAGN at three escalating concentrations (200, 400, and 600 μM for each compound). The cell survival rate was quantitatively evaluated using MTT method. The protective efficacy of the compounds was then calculated employing the formula outlined below.(1) Hepatocytes protection rate=AGlycyrrhizinate−AAPAP/Anormal−AAPAP×1

[1] = Pharmacokinetics after oral gavage in rats (plasma, HPLC); type: in vivo, Sprague Dawley rats; settings: rat
Text: Nine male Sprague Dawley rats, each weighing approximately 250 g ± 25 g, were meticulously selected as the experimental subjects (sourced from Beijing SPF Biotechnology Co., Ltd., (Beijing, China) SPF grade, licensed under SCXK (Jing) 2019-0010). The experimental protocol was approved by the Institutional Animal Care and Use Committee of Hebei Medical University and conformed to the Guide for Care and Use of Laboratory Animals (approval NO. 2023040). Prior to and throughout the experimental period, the rats were provided with unrestricted access to standard rodent chow and water. The housing facilities for these animals adhered strictly to the standards outlined by the International Association for the Evaluation and Certification of Laboratory Animal Care, ensuring optimal conditions for the animals’ wellbeing. The experimental feeding environment was maintained at a temperature of 22–24 °C, with a relative humidity of 50 ± 5%, and a 12-h light/dark cycle to mimic natural diurnal rhythms. The rats were randomly allocated into three distinct groups, with an equal distribution of three rats per group. MONO, DIAM, and MAGN were administered orally at a dose of 20 mg/kg. The amount administered was calculated as the contents of glycyrrhizinate or magnesium isoglycyrrhizinate. Each compound was dissolved in 0.5% carboxymethylcellulose sodium (CMC-Na) solution and delivered immediately to rats via gastric gavage. Blood samples of 0.2 mL were obtained at various time points post-administration (0.5, 1, 2, 4, 8, 12, 24, and 48 h) and centrifuged at 1500× g for 10 min at 4 °C, allowing for the separation of plasma, which was collected and stored at −20 °C for subsequent analysis.
Fifty microliters (50 μL) of plasma was obtained and spiked with 10 μL of dipyridamole solution as an internal standard. Subsequently, 100 μL of acetonitrile was added to precipitate the proteins, followed by vortex mixing. The mixture was centrifuged at 6000× g for 10 min at 4 °C. The resulting precipitate was discarded, and the supernatant was evaporated to dryness under a nitrogen stream at 60 °C. The residual precipitate was redissolved in 200 μL of mobile phase, vortexed for 5 min, and sonicated for 30 s. Following this, the solution was centrifuged again at 6000× g for 10 min at 4 °C. Then, 10 μL of the supernatant was injected and the chromatogram was recorded for analysis.
HPLC was employed using the Agilent 1200 series system (Agilent Technologies, Wilmington, DE, USA) with Agilent Chemstation LC B.04.03 Software. The separation was on a Venusil MP C18(2) chromatographic column (150 × 4.6 mm, 5 μm, Agela Technologies, Tianjin, China) based on the United States Pharmacopeia with adjustments performed. Isocratic elution with a mixture of 40 volumes of acetonitrile and 60 volumes of water (containing 0.5% acetic acid) was used. The flow rate and temperature were 1.0 mL/min and 40 °C, respectively. A volume of 10 μL of the sample was injected under 254 nm for analyses and with three repetitions for each test (n = 3). All the pharmacokinetic data were calculated by Drug and Statistics (DAS) 2.0 software (Mathematical Pharmacology Professional Committee of China, Shanghai, China) and presented as mean ± SD. The main parameters such as the area under the curve (AUC), the maximum plasma concentration (Cmax), the time to Cmax (Tmax), and elimination half-life (t1/2) were tabulated.

half-life ([1]; male, Sprague Dawley, po, 20 mg/kg, n = 3) [h] | AUC(0-t) ([1]; male, Sprague Dawley, po, 20 mg/kg, n = 3, read-out: AUC0-t) [µg·h/mL] | Cmax ([1]; male, Sprague Dawley, po, 20 mg/kg, n = 3, read-out: Cmax) [ng/mL] | Tmax ([1]; male, Sprague Dawley, po, 20 mg/kg, n = 3, read-out: Tmax) [h] | Compound | liver protection rate (LO2 cells; 400 μM) | hepatocyte protection (therapeutic effect) (LO2 cells) | AUC(0-t) ([1]; oral 20 mg/kg, n = 3) [µg·h/mL] | Cmax ([1]; oral 20 mg/kg, n = 3) [ng/mL] | Tmax ([1]; oral 20 mg/kg, n = 3) [h] | t1/2 ([1]; oral 20 mg/kg, n = 3) [h] | liver protection rate (LO2 cells; 600 μM)
 |  |  |  | CC1(C)[C@@H](O[C@H]2O[C@H](C(=O)O)[C@@H](O)[C@H](O)[C@H]2O[C@@H]2O[C@H](C(=O)O)[C@@H](O)[C@H](O)[C@H]2O)CC[C@]2(C)[C@H]3C(=O)C=C4[C@@H]5C[C@@](C)(C(=O)O)CC[C@]5(C)CC[C@@]4(C)[C@]3(C)CC[C@@H]12 [DIAM, diammonium glycyrrhizinate] | comparable liver protection rates, which were statistically indistinguishable and surpassed that of MONO | concentration-dependent therapeutic effects | 358.04 ± 56.36 | 18860 ± 2030 | 6 ± 0 | 11.57 ± 1.29 | 
23.7 ± 2.44 | 552 ± 120 | 23200 ± 4180 | 9.66 | CC1(C)[C@@H](O[C@H]2O[C@H](C(=O)O)[C@@H](O)[C@H](O)[C@H]2O[C@@H]2O[C@H](C(=O)O)[C@@H](O)[C@H](O)[C@H]2O)CC[C@]2(C)[C@H]3C(=O)C=C4[C@H]5C[C@@](C)(C(=O)O)CC[C@]5(C)CC[C@@]4(C)[C@]3(C)CC[C@@H]12 [MAGN, magnesium isoglycyrrhizinate] | comparable liver protection rates, which were statistically indistinguishable and surpassed that of MONO | concentration-dependent therapeutic effects |  |  | 9.33 ± 2.31 |  | superior protective rate compared to DIAM
